Source: patent US20120004193A1, “PROCESS FOR PRODUCTION OF ORALLY INGESTIBLE COMPOSITION CONTAINING ARABINOFURANOSYL VITEXIN, AND USE OF THE COMPOSITION” (Fuji Sangyo Co., Ltd., priority 2009, published 2012)

Tested on: ICR mice
Assay: Sedative and sleep-inducing activities in thiopental sodium-treated mice
Assay type: in vivo, mouse
Settings: 100 mg/kg body weight oral, thiopental sodium 30 mg/kg i.p. 45 minutes later, measured over 40 minutes, compared with negative control group, p<0.01 (Dunnet)
Experimental: The arabinofuranosyl vitexin-isolated product obtained in the above-mentioned procedure (1) was used to study sedative and sleep-inducing effects. A sample was orally administered to six ICR mice (body weight: 40 to 45 g).
As the sample, the ‘arabinofuranosyl vitexin (100 mg/kg body weight)’ dissolved in physiological saline was orally administered. It should be noted that ‘diazepam (2 mg/kg body weight)’ having a sleep-inducing effect was dissolved in physiological saline and orally administered as a positive control, and ‘physiological saline alone’ was orally administered as a negative control.
Then, 45 minutes after the oral administration of the sample, thiopental sodium (30 mg/kg body weight) […] was administered intraperitoneally, and the mice were individually placed in mouse cages (17 cm×27 cm).
In a period from the start of the administration of thiopental sodium to 40 minutes later, a total time when a mouse stopped moving for one or more minutes and got in a sleep state was measured to evaluate the sedative and sleep-inducing effects.
It should be noted that the symbol in FIG. 2 represents that there is a significant difference compared with the negative control group at a risk rate of less than 1% (p<0.01) by a Dunnet multiple comparison assay.

## O=c1cc(-c2ccc(O)cc2)oc2c(C3OC(CO)C(O)C(O)C3OC3OC(CO)C(O)C3O)c(O)cc(O)c12 [arabinofuranosyl vitexin, 2″-O-α-D-arabinofuranosyl vitexin]
  sedation and sleeping times (total time when a mouse stopped moving for one or more minutes and got in a sleep state): extended significantly
